From patent publication US20170196797A1 (AMOREPACIFIC CORPORATION, priority 2014, published 2017)

Columns and labels:
[1] = tested on: collagenase; assay: Collagenase expression suppression in human fibroblasts; assay type: cell-based; conditions: 10^−4 M, 24 hours, untreated group = 100
Method: Tocopherol and EGCG are known to prevent skin aging by regenerating epidermal cells.
Human fibroblasts were added to a 96-well microtiter plate containing Dulbecco's modified Eagle's medium (DMEM) supplemented with 2.5 wt % fetal bovine serum, with 5,000 cells/well, and cultured to about 90% confluence.
The production of collagenase in the cell culture was measured using a collagenase measuring system (Amersham Pharmacia, USA). First, the harvested cell culture was added to a 96-well plate having primary collagenase antibodies applied uniformly thereto and was incubated for 3 hours in a constant-temperature bath. 3 hours later, after adding chromophore-conjugated secondary collagen antibodies to the 96-well plate, incubation was performed for 15 minutes. 15 minutes later, a substance inducing color development was added and color development was induced at room temperature for 15 minutes. […] The intensity of the yellow color varied depending on the degree of progress of the reaction.
A cell culture obtained without treating with the composition was used as a control group. That is to say, the expression level of collagenase in the group treated with the test substance was calculated relative to that of the untreated group as 100.
Collagenase expression level(%)=Absorbance of group treated with test substance/Absorbance of control group×100 [Equation 1]

[2] = tested on: MCP-1; assay: MCP-1 ELISA in retinoic acid-treated normal human skin keratinocytes; assay type: cell-based; conditions: NHEKs, 24 hours
Method: One day before the testing, normal human skin keratinocytes (NHEKs, Lonza) were added to a 96-well plate with 5×10^4 cells/well and cultured in a 5% CO2 incubator at 37° C. for 24 hours. 24 hours later, the cells were washed with PBS twice and the cell culture medium was replaced with a serum-free keratinocyte basement medium (KBM). […] The retinoic acid is known to promote the secretion of the inflammatory cytokine MCP (monocyte chemoattractant protein-1) as a skin irritant. […] For the ELISA, the method provided by BD Science was used.

[3] = tested on: Mel-Ab cells; assay: Melanin production inhibition in Mel-Ab cells (Dooley's method); assay type: cell-based, mouse; conditions: 10 ppm, added for 3 consecutive days
Method: Melanocytes derived from C57BL/6 mouse (Mel-Ab cells) (Dooley, T. P. et al, Skin Pharmacol, 7, pp. 188-200) were cultured in DMEM supplemented with 10% fetal bovine serum, 100 nM 12-O-tetradecanoylphorbol-13-acetate and 1 nM cholera toxin under the condition of 37° C. and 5% CO2. The cultured Mel-Ab cells were detached with 0.25% trypsin-EDTA and cultured in a 24-well plate with a concentration of 10^5 cells/well. During the culturing, each test substance was added for 3 consecutive days starting from day 2. […] After removing the medium, the cells were washed with phosphate-buffered saline (PBS) and lysed with 1 N sodium hydroxide. After measuring absorbance at 400 nm, the melanin production inhibition was calculated according to Equation 2.
Melanin production inhibition(%)=100−(Absorbance of group treated with test substance/Absorbance of control group×100) [Equation 2]

[4] = Skin irritation test by sensitive panels; assay type: in vivo, human; conditions: scale 0-3.0
From the text: 0.5-1.0: Slight irritation.
1.1-2.0: Moderate irritation.
2.1-3.0: Severe irritation.

[5] = DPPH method, antioxidative effect; assay type: biochemical; conditions: sample concentration at which DPPH absorbance (540 nm) decreased by 50%; 37° C., 30 minutes
Method: The DPPH method evaluates antioxidative effect by measuring and comparing the effect of suppressing DPPH oxidation based on the change in absorbance caused by the reduction of DPPH. […] After incubation at 37° C. for 30 minutes, absorbance was measured at 540 nm. The analysis result is shown in Table 3, where IC50 means the sample concentration when the absorbance was decreased by 50% due to the added sample.

[6] = 0.5 mL on cheek, 15 sensitive panels

`O=C(O[C@@H]1Cc2c(O)cc(O)cc2O[C@@H]1c1cc(O)c(O)c(O)c1)c1cc(O)c(O)c(O)c1` [EGCG] showed a Collagenase expression level [1] of 59%.
`C[C@]12CCC(=O)C=C1CC[C@@H]1[C@@H]2[C@@H](O)C[C@@]2(C)[C@H]1CC[C@]2(O)C(=O)CO` [Hydrocortisone, hydrocortisone] showed an MCP-1 secretion ([2]; 100 nM + retinoic acid 10 μM) of 448.3 pg/mL.
For `Oc1ccc(O)cc1` [Hydroquinone, hydroquinone], the Melanin production inhibition [3] was 57.5%.
Work on `O=c1cc(CO)occ1O` [Kojic acid, kojic acid] yielded a Flushing score [4, 6] of 0.43 points, a Pricking score [4, 6] of 0.81 points and a Mean irritation score ([4]; mean of pricking and flushing) of 0.62 points.
`CC1=C(/C=C/C(C)=C/C=C/C(C)=C/C(=O)O)C(C)(C)CCC1` [Retinoic acid, retinoic acid] showed an MCP-1 secretion ([2]; retinoic acid 10 μM alone, untreated group 527.3) of 804.5 pg/mL.
In the case of `Cc1c(C)c2c(c(C)c1O)CCC(C)(C(=O)O)O2` (stereo not drawn) [Trolox], the IC50 [5] is reported as 57 ppm.
tocopherol showed a Collagenase expression level [1] of 81%.
